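Briefly, cells in 96-well plates were exposed to five compound concentrations for 48 h, and endpoints were estimated by linear interpolation. GI50 is the concentration that inhibits growth by half. TGI denotes the concentration required for complete inhibition of growth.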
Columns and labels:
Assay in all cases: inhibition of tumour cell growth, NCI panel, 48 h
M14 melanoma = tested on: M14 melanoma
786-0 renal = tested on: 786-0 renal
SK-MEL-5 melanoma = tested on: SK-MEL-5 melanoma
OVCAR-4 ovarian = tested on: OVCAR-4 ovarian
COLO 205 colon = tested on: COLO 205 colon
A549 NSCLC = tested on: A549 NSCLC
MDA-MB-231 breast = tested on: MDA-MB-231 breast
SF-295 CNS = tested on: SF-295 CNS
MDA-MB-435 = tested on: MDA-MB-435
SN12C renal = tested on: SN12C renal
MALME-3M melanoma = tested on: MALME-3M melanoma
T-47D breast = tested on: T-47D breast
TK-10 renal = tested on: TK-10 renal
CAKI-1 renal = tested on: CAKI-1 renal
SR leukemia = tested on: SR leukemia
U251 CNS = tested on: U251 CNS
OVCAR-3 ovarian = tested on: OVCAR-3 ovarian
LOX IMVI melanoma = tested on: LOX IMVI melanoma
OVCAR-8 ovarian = tested on: OVCAR-8 ovarian
SF-539 CNS = tested on: SF-539 CNS
HCT-15 colon = tested on: HCT-15 colon
EKVX NSCLC = tested on: EKVX NSCLC
NCI-H23 lung = tested on: NCI-H23 lung
KM12 colon = tested on: KM12 colon
RPMI-8226 leukemia = tested on: RPMI-8226 leukemia
HS 578T breast = tested on: HS 578T breast
OVCAR-5 ovarian = tested on: OVCAR-5 ovarian
UACC-257 melanoma = tested on: UACC-257 melanoma
A498 renal = tested on: A498 renal
NCI/ADR-RES ovarian = tested on: NCI/ADR-RES ovarian
SW-620 colon = tested on: SW-620 colon
HCC-2998 colon = tested on: HCC-2998 colon
HCT-116 colon = tested on: HCT-116 colon
NCI-H226 lung = tested on: NCI-H226 lung
SK-MEL-2 melanoma = tested on: SK-MEL-2 melanoma
NCI-H460 lung = tested on: NCI-H460 lung
PC-3 prostate = tested on: PC-3 prostate
SK-MEL-28 melanoma = tested on: SK-MEL-28 melanoma
MCF7 breast = tested on: MCF7 breast
SNB-75 CNS = tested on: SNB-75 CNS
UACC-62 melanoma = tested on: UACC-62 melanoma
BT-549 breast = tested on: BT-549 breast
IGROV1 ovarian = tested on: IGROV1 ovarian
NCI-H522 lung = tested on: NCI-H522 lung
UO-31 renal = tested on: UO-31 renal
SF-268 CNS = tested on: SF-268 CNS
HOP-92 NSCLC = tested on: HOP-92 NSCLC
SNB-19 CNS = tested on: SNB-19 CNS
HT29 colon = tested on: HT29 colon
RXF 393 renal = tested on: RXF 393 renal
ACHN renal = tested on: ACHN renal
DU-145 prostate = tested on: DU-145 prostate
HOP-62 NSCLC = tested on: HOP-62 NSCLC

SMILES: O=C(Nc1nc2ccc(S(=O)(=O)Nc3ccc(C4(C(F)(F)F)CC4)cc3)cc2[nH]1)c1cnccn1
- GI50 (M14 melanoma): 1.12 µM
- TGI (M14 melanoma): 11.1 µM
- GI50 (786-0 renal): 2.77 µM
- TGI (786-0 renal): 12.6 µM
- GI50 (SK-MEL-5 melanoma): 0.693 µM
- TGI (SK-MEL-5 melanoma): 4.3 µM
- GI50 (OVCAR-4 ovarian): 4.61 µM
- TGI (OVCAR-4 ovarian): 19.7 µM
- GI50 (COLO 205 colon): 2.84 µM
- TGI (COLO 205 colon): 17.5 µM
- GI50 (A549 NSCLC): 2.88 µM
- TGI (A549 NSCLC): 21.5 µM
- GI50 (MDA-MB-231 breast): 5.32 µM
- TGI (MDA-MB-231 breast): 19.4 µM
- GI50 (SF-295 CNS): 0.506 µM
- TGI (SF-295 CNS): 10.3 µM
- GI50 (MDA-MB-435): 0.33 µM
- TGI (MDA-MB-435): 1.4 µM
- GI50 (SN12C renal): 4.46 µM
- TGI (SN12C renal): 17.6 µM
- GI50 (MALME-3M melanoma): 1.66 µM
- TGI (MALME-3M melanoma): 15.5 µM
- GI50 (T-47D breast): 3.8 µM
- TGI (T-47D breast): 23.9 µM
- GI50 (TK-10 renal): 8.16 µM
- TGI (TK-10 renal): 22.5 µM
- GI50 (CAKI-1 renal): 4.19 µM
- TGI (CAKI-1 renal): 16.2 µM
- GI50 (SR leukemia): 0.359 µM
- TGI (SR leukemia): 2.96 µM
- GI50 (U251 CNS): 4.74 µM
- TGI (U251 CNS): 22.5 µM
- GI50 (OVCAR-3 ovarian): 0.417 µM
- TGI (OVCAR-3 ovarian): 10.1 µM
- GI50 (LOX IMVI melanoma): 1.62 µM
- TGI (LOX IMVI melanoma): 20.1 µM
- GI50 (OVCAR-8 ovarian): 5.51 µM
- TGI (OVCAR-8 ovarian): 31.8 µM
- GI50 (SF-539 CNS): 2.35 µM
- TGI (SF-539 CNS): 10.4 µM
- GI50 (HCT-15 colon): 0.557 µM
- TGI (HCT-15 colon): 14.3 µM
- GI50 (EKVX NSCLC): 3.04 µM
- TGI (EKVX NSCLC): 15 µM
- GI50 (NCI-H23 lung): 2.2 µM
- TGI (NCI-H23 lung): 15.8 µM
- GI50 (KM12 colon): 1.03 µM
- TGI (KM12 colon): 14.4 µM
- GI50 (RPMI-8226 leukemia): 1.16 µM
- TGI (RPMI-8226 leukemia): 5.39 µM
- GI50 (HS 578T breast): 2.57 µM
- TGI (HS 578T breast): 13.5 µM
- GI50 (OVCAR-5 ovarian): 5.52 µM
- TGI (OVCAR-5 ovarian): 19.5 µM
- GI50 (UACC-257 melanoma): 10.6 µM
- TGI (UACC-257 melanoma): 23.8 µM
- GI50 (A498 renal): 2.26 µM
- TGI (A498 renal): 8.17 µM
- GI50 (NCI/ADR-RES ovarian): 1.73 µM
- TGI (NCI/ADR-RES ovarian): 11.8 µM
- GI50 (SW-620 colon): 1.71 µM
- TGI (SW-620 colon): 15.3 µM
- GI50 (HCC-2998 colon): 3.61 µM
- TGI (HCC-2998 colon): 17.7 µM
- GI50 (HCT-116 colon): 1.66 µM
- TGI (HCT-116 colon): 15.9 µM
- GI50 (NCI-H226 lung): 2.08 µM
- TGI (NCI-H226 lung): 9.51 µM
- GI50 (SK-MEL-2 melanoma): 3.03 µM
- TGI (SK-MEL-2 melanoma): 18.5 µM
- GI50 (NCI-H460 lung): 1.07 µM
- TGI (NCI-H460 lung): 12.2 µM
- GI50 (PC-3 prostate): 1.06 µM
- TGI (PC-3 prostate): 2.47 µM
- GI50 (SK-MEL-28 melanoma): 4.58 µM
- TGI (SK-MEL-28 melanoma): 19.2 µM
- GI50 (MCF7 breast): 0.551 µM
- TGI (MCF7 breast): 13.4 µM
- GI50 (SNB-75 CNS): 1.53 µM
- TGI (SNB-75 CNS): 6.45 µM
- GI50 (UACC-62 melanoma): 1.51 µM
- TGI (UACC-62 melanoma): 15.4 µM
- GI50 (BT-549 breast): 1.91 µM
- TGI (BT-549 breast): 16.1 µM
- GI50 (IGROV1 ovarian): 1.9 µM
- TGI (IGROV1 ovarian): 18.5 µM
- GI50 (NCI-H522 lung): 1.07 µM
- TGI (NCI-H522 lung): 14.4 µM
- GI50 (UO-31 renal): 3.02 µM
- TGI (UO-31 renal): 13.9 µM
- GI50 (SF-268 CNS): 4.21 µM
- TGI (SF-268 CNS): 20.6 µM
- GI50 (HOP-92 NSCLC): 1.04 µM
- TGI (HOP-92 NSCLC): 2.4 µM
- GI50 (SNB-19 CNS): 4.24 µM
- TGI (SNB-19 CNS): 22 µM
- GI50 (HT29 colon): 1.2 µM
- TGI (HT29 colon): 14.4 µM
- GI50 (RXF 393 renal): 1.12 µM
- TGI (RXF 393 renal): 4.28 µM
- GI50 (ACHN renal): 4.39 µM
- TGI (ACHN renal): 18.2 µM
- GI50 (DU-145 prostate): 2.88 µM
- TGI (DU-145 prostate): 13.2 µM
- GI50 (HOP-62 NSCLC): 3.85 µM
- TGI (HOP-62 NSCLC): 23 µM
